Among the data in PubChem BioAssay (NCI) are GI50 and TGI values, retold here.

Several values for one entry are separate records, joined by “and”; a condition that tells them apart may be missing. Equal values may be shown once.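 96-well plates; 48 h exposure; 5 concentrations. Endpoints by linear interpolation between flanking doses. Not reached: highest tested concentration assigned. GI50 marks 50% less growth. TGI: total growth inhibition.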

Common to all, as to assay: NCI tumour cell line growth inhibition, 48 h
In assay [1] the test system is OVCAR-8 ovarian.
Assay [2] deals with HOP-62 NSCLC.
For assay [3], the system named is SNB-19 CNS.
For assay [4], the system named is SK-MEL-2 melanoma.
The subject of assay [5] is HCC-2998 colon.
The test system of assay [6] is RPMI-8226 leukemia.
The test system of assay [7] is HCT-116 colon.
The test system of assay [8] is SNB-75 CNS.
For assay [9], the system named is CCRF-CEM leukemia.
Assay [10] relates to NCI-H23 lung.

With `C=CC(=O)Nc1cccc(Nc2nc(Nc3ccc(OCCOC(F)F)cc3)ncc2F)c1`, the GI50 in assay [1] was 3.33 µM; in [2] it was 2.38 µM; in assay [3] it was 5.6 µM; in [4], 1.8 µM; in [5], 12.6 µM; in [6], 2.48 µM. In addition, the GI50 in assay [7] is 2.69 µM; in [8], 0.848 µM; in assay [9], 5.17 µM; in [10], 6.99 µM. In addition, the TGI is 19.4 µM in [1]; 17.2 µM in [2]; more than 100 µM in assay [3]; 6.82 µM in assay [4]; 47.6 µM in [5]; 14.7 µM in [6]. Further, the TGI was 20 µM in [7], 5 µM in [8], 94 µM in [9] and more than 100 µM in assay [10].
With `O=C(Nc1ccccc1O)c1ccc(CNC(=O)c2ccsc2Nc2ccnc(C(F)(F)F)c2)cc1`, the GI50 in assay [1] was 1.57 µM; in assay [2] it was 7.84 µM; in assay [3], 2.97 µM; in assay [4], 2.1 µM; in assay [5], 1.84 µM; in assay [6] it was 1.14 µM. Also, the GI50 in [7] is 1.34 µM; in assay [8], 2.57 µM; in assay [9] it was 0.32 µM; in [10] it was 1.72 µM. The TGI in assay [1] is 19.1 µM; in assay [2], more than 100 µM; in assay [3], 13.2 µM; in [4], 6.26 µM; in assay [5] it was 4.33 µM; in assay [6], 6.72 µM. Further, the TGI in assay [7] is 3.36 µM; in assay [8] it was 43.5 µM; in assay [9] it was more than 100 µM; in assay [10], 4.88 µM.
Regarding `CCc1cccc(CC)c1/C=C/c1cncc(C(=O)NC)c1`, the GI50 was 15.4 µM in [1]; 9.88 µM in assay [2]; 19.7 µM in assay [3]; 10.9 µM in [4]; 11.2 µM in assay [5]; 9.46 µM in assay [6]. For the same compound, the GI50 in assay [7] was 9.46 µM; in assay [8], 7.08 µM; in assay [9], 0.765 µM; in assay [10], 15.2 µM. The TGI in [1] was more than 25 µM; in assay [2], more than 25 µM; in assay [3] it was more than 25 µM; in [4] it was more than 22.6 µM; in assay [5], more than 25 µM; in assay [6] it was more than 25 µM. For the same compound, the TGI in assay [7], in [8], in assay [9] and in assay [10] was more than 25 µM throughout.
With `NC(=O)c1cc(I)ccc1NC(=O)COc1ccccc1`, the GI50 in [1] is 0.876 µM; in assay [2], 0.598 µM; in assay [3], 0.699 µM; in [4] it was 0.566 µM; in assay [5] it was 2.5 µM; in assay [6], 0.679 µM. Also, the GI50 is 0.499 µM in assay [7], 0.316 µM in assay [8], 0.463 µM in assay [9] and 0.822 µM in assay [10]. In addition, the TGI is more than 100 µM in assay [1]; 12.4 µM in assay [2]; 44.1 µM in assay [3]; 16.3 µM in assay [4]; more than 100 µM in assay [5]; more than 100 µM in assay [6]. Further, the TGI is 16.1 µM in assay [7], 4.49 µM in assay [8], more than 100 µM in assay [9] and 22.4 µM in assay [10].
Turning to `O=c1oc2ccc(F)cc2c(=O)n1-c1ccc(Br)cc1F`, the GI50 is 1.59 µM in [1]; 1.64 µM in assay [2]; 0.45 µM in [3]; 0.46 µM in assay [4]; 2.9 µM in [5]; 0.27 µM in assay [6]. In addition, the GI50 in [7] was 0.436 µM; in [8], 0.252 µM; in [9], 2.72 µM; in [10], 0.481 µM. The TGI in assay [1] is more than 100 µM; in [2], 7.25 µM; in [3], more than 80.8 µM; in assay [4] it was 3.98 µM; in assay [5] it was 10.8 µM; in [6], 1.05 µM. Also, the TGI is 2.69 µM in assay [7], 2.79 µM in assay [8] and more than 100 µM in assay [9].
Turning to `COc1ccc2c(c1)nc1n2C(c2ccc(F)cc2)SC1` (stereo unspecified), the GI50 was 17.2 µM in assay [1]; 79.7 µM in assay [2]; 36.5 µM in [3]; 20.4 µM in assay [4]; 18.4 µM in [5]; 14.8 µM in assay [6]. Further, the GI50 in assay [7] is 30.8 µM; in [8], 25.6 µM; in assay [9], 25.9 µM; in assay [10], 18.9 µM. In addition, the TGI in assay [1] is 43.2 µM; in [2], more than 100 µM; in assay [3], more than 100 µM; in [4], 65 µM; in assay [5], 57.1 µM; in assay [6], 66.3 µM. For the same compound, the TGI in [7], in [8], in [9] and in assay [10] was more than 100 µM throughout.
In the case of `Cc1ccc(/C=C2\CNC/C(=C\c3ccc(C)cc3)C2=O)cc1`, the GI50 in assay [1] was 0.587 µM; in assay [2], 3.26 µM; in assay [3], 1.93 µM; in [4] it was 1.9 µM; in [5], 1.42 µM; in assay [7], 0.202 µM. Besides, the results for the GI50 in assay [8] and in assay [9] were 8.74 µM and 2.74 µM, respectively. For the same compound, the TGI was 2.44 µM and 5.63 µM in [1]; 9.75 µM and 7.33 µM in assay [2]; 4.78 µM and 15 µM in [3]; 2.77 µM and 3.07 µM in assay [5]; 0.69 µM in [6]; 0.382 µM and 1.93 µM in assay [7]. In addition, the TGI is 68.1 µM in assay [8]; 7.82 µM and 8.71 µM in [9]; 3.79 µM and 4.1 µM in assay [10].
As to `CC[C@@]1(O)C(=O)OCc2c1cc1n(c2=O)Cc2cc3c(N)cccc3nc2-1`, the GI50 in assay [1] is 0.0403 µM; in assay [2], 0.00637 µM; in [5], 0.0239 µM; in [7] it was 0.00979 µM and 0.0559 µM; in assay [9], 0.00158 µM; in [10] it was 0.00525 µM. The TGI amounted to 2.51 µM in assay [1]; 0.0489 µM in [2]; 6.05 µM in [3]; 1.99 µM in assay [4]; 1.39 µM in assay [5]; 4.72 µM in assay [6]. Moreover, the TGI in assay [7] was 0.737 µM; in assay [8], 0.0711 µM and 0.231 µM; in assay [10], 0.0511 µM and 0.162 µM.
